Laboratory results reported in PubChem BioAssay (NCI).
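Where inhibition never reached the appropriate level, the endpoint shown equals the highest concentration tested. Otherwise, values were interpolated linearly from a five-concentration, 48-hour dose response in 96-well plates. Here, GI50 denotes the concentration required for 50% inhibition of growth. At the TGI there is no net growth.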

Tests used:
Test in all cases: growth of human tumour cells (NCI), 48 h
CCRF-CEM leukemia = test system: CCRF-CEM leukemia
HCC-2998 colon = test system: HCC-2998 colon
IGROV1 ovarian = test system: IGROV1 ovarian
LOX IMVI melanoma = test system: LOX IMVI melanoma
NCI-H226 lung = test system: NCI-H226 lung
NCI-H460 lung = test system: NCI-H460 lung
NCI-H522 lung = test system: NCI-H522 lung
NCI/ADR-RES ovarian = test system: NCI/ADR-RES ovarian
OVCAR-3 ovarian = test system: OVCAR-3 ovarian
OVCAR-8 ovarian = test system: OVCAR-8 ovarian
SF-268 CNS = test system: SF-268 CNS
SK-MEL-2 melanoma = test system: SK-MEL-2 melanoma
MDA-MB-435 = test system: MDA-MB-435

| SMILES | TGI (CCRF-CEM leukemia) [µM] | TGI (HCC-2998 colon) [µM] | TGI (IGROV1 ovarian) [µM] | TGI (LOX IMVI melanoma) [µM] | TGI (NCI-H226 lung) [µM] | TGI (NCI-H460 lung) [µM] | TGI (NCI-H522 lung) [µM] | TGI (NCI/ADR-RES ovarian) [µM] | TGI (OVCAR-3 ovarian) [µM] | TGI (OVCAR-8 ovarian) [µM] | TGI (SF-268 CNS) [µM] | TGI (SK-MEL-2 melanoma) [µM] | TGI (MDA-MB-435) [µM] | GI50 (CCRF-CEM leukemia) [µM] | GI50 (IGROV1 ovarian) [µM] | GI50 (NCI-H226 lung) [µM] | GI50 (NCI-H522 lung) [µM] | GI50 (OVCAR-3 ovarian) [µM] |
| --- | --- | --- | --- | --- | --- | --- | --- | --- | --- | --- | --- | --- | --- | --- | --- | --- | --- | --- |
| CSCSCC(CO)NC(=O)/C(C)=C\c1c(C)[nH]c(=O)[nH]c1=O (centres undefined) | > 250 | > 250 | > 250 | > 250 | > 250 | > 250 | > 250 | > 250 | > 250 | > 250 | > 250 | > 250 |  |  |  |  |  |  |
| CN(CCCNC(=O)c1cn(C)c2c1Cc1ccccc1-2)CCCNC(=O)c1cn(C)c2c1Cc1ccccc1-2 | 17.2 |  | 21.8 | 24.6 | 41.4 | 23.8 |  | 28 | 31.3 | 29.8 | 21.3 | 30.6 | 5.16 |  |  |  |  |  |
| COC(=O)/C=C1/OC(c2ccccc2)=C(C)C1=O | > 100 | 30.2 | 28.4 | 2.72 | 38.6 | 39.2 | 57.5 | 65.5 | 41.9 | 81.6 | 35.5 |  | 27.5 |  |  |  |  |  |
| CC(=O)OCC(=O)OC[C@H](OCc1ccccc1)[C@@H]1[C@H](OC(C)=O)C(=O)N1Cc1ccccc1 | > 100 |  | > 100 | > 100 | > 100 |  |  | > 100 | > 100 | > 100 | > 100 | > 100 | > 100 |  |  |  |  |  |
| Cc1ccc2c(=O)cc(-c3ccc(C)s3)[nH]c2n1 |  | 9.82 | > 50.4 | > 42.9 | 2.45 | > 100 |  | 0.676 | > 46.8 | > 28.3 | > 74 | > 100 |  |  |  |  |  |  |
| O=C1NN(Cc2ccccc2)C(=O)N2CCC[C@@H]12 | > 100 | > 100 | > 100 | > 100 | > 100 | > 100 |  | > 100 | > 100 | > 100 | > 100 | > 100 | > 100 |  |  |  |  |  |
| CC(=O)c1ccc2c(c1)CC1(C2)Cc2cc3c(c(C(=O)O)c2C1)CCC3 (centres undefined) | > 100 | > 100 | > 100 | > 100 | > 100 | > 100 | > 100 | > 100 | > 100 | > 100 | > 100 |  | > 100 |  |  |  |  |  |
| Cn1c2ccccc2c(=O)c2c(O)cc3c(c21)C=CC(C)(C)O3 | > 25 | > 25 | > 25 | > 25 | > 25 | > 25 | > 25 | > 25 | > 25 |  | > 25 | > 25 |  |  |  |  |  |  |
| CCOP(=O)(OCC)C(NC(=O)C(C(F)(F)F)C(F)(F)F)c1ccccc1 (centres undefined) | > 100 | > 100 | > 100 | > 100 |  | > 100 |  | > 100 | > 100 | > 100 | > 100 | > 100 | > 100 |  |  |  |  |  |
| Nc1ncnc2c1ncn2C1CCC(CP(=O)(O)O)C1 (centres undefined) |  | > 100 | > 100 | > 100 | > 100 | > 100 |  | > 100 | > 100 | > 100 | > 100 | > 100 | > 100 |  |  |  |  |  |
| O=C(N/N=C/c1cc(Br)cc(Br)c1[O-])c1ccccc1O.O=C(N/N=C/c1cc(Br)cc(Br)c1[O-])c1ccccc1O.[Zn+2] |  | 3.42 | 5.55 | 13.7 | 3.19 | 9.26 | 1.47 |  | 0.742 | 10.5 | 17.5 | 12 |  |  |  |  |  |  |
| N[C@@H]1CCN(c2c(F)cc3c(=O)c(C(=O)O)cn4c3c2Oc2cc3c(ccc5ccccc53)cc2-4)C1 | 0.234 |  | > 100 | > 63.7 | > 100 | 7.01 | 31.6 | > 100 | 34.5 | 18.1 |  | > 78 | > 100 |  |  |  |  |  |
| C=C1C(=O)O[C@H]2C1C[C@@H](OC(C)=O)/C(C)=C/CC[C@@]1(C)O[C@H]21 (some centres undefined) | 4.75 | 27.9 | 21.2 | 19.1 |  | > 100 | 10.2 | 32.3 |  | 32.5 |  | 57.9 | 87.7 |  |  |  |  |  |
| Cc1cc(=O)oc2cc(OCC(O)COC(C)C)ccc12 (centres undefined) | > 100 | > 100 | > 100 | > 100 |  | > 100 | > 100 | > 100 | > 100 | > 100 | > 100 |  |  |  |  |  |  |  |
| CCOC(=O)/C(=N/Nc1ccccc1)N1C(=S)C=C(C)NN(C)C1=S | > 100 | > 100 | > 100 |  |  | > 100 | > 100 | > 100 | > 100 | > 100 | > 100 | > 100 | > 100 |  |  |  |  |  |
| CC(C)CC(N)C(=O)Nc1ccc2ccccc2c1 (centres undefined) | > 100 | > 100 | > 100 | > 100 | > 100 |  | > 100 | > 100 | > 100 | > 100 | > 100 | > 100 |  |  |  |  |  |  |
| COc1cccc(/C=C2\S/C(=N/Nc3nc(C)c(C)s3)NC2=O)c1O |  | > 100 | > 100 | > 100 | > 100 | > 100 |  | > 100 | > 100 | > 100 | > 100 | > 100 | > 100 |  |  |  |  |  |
| CCCc1cc(COC)c(C#N)c(=O)[nH]1 | > 100 | > 100 | > 100 | > 100 | > 100 | > 100 | > 100 | > 100 | > 100 | > 100 | > 100 |  | > 100 |  |  |  |  |  |
| CC(C)C1NC(=O)CC(c2ccccc2)N(N=O)C1c1ccccc1 (centres undefined) | > 100 | > 100 | > 100 | > 100 | > 100 | > 100 | > 100 | > 100 | > 100 | > 100 | > 100 | > 100 |  |  |  |  |  |  |
| COc1ccc(-c2c3c(n(C4OC(CO)C(O)C(O)C4O)c(=S)c2C#N)CCCC3)cc1 (centres undefined) | > 100 | > 100 | > 100 | > 100 | > 100 | > 100 |  | > 100 | > 100 | > 100 |  | > 100 | > 100 |  |  |  |  |  |
| CC(=O)NC(NCCN)(c1ccccc1)c1ccccc1 | > 100 | > 100 |  | > 100 | > 100 | > 100 |  | > 100 |  | > 100 | > 100 |  | > 100 |  |  |  |  |  |
| COc1cc(C2(c3ncc[nH]3)SSSCC2O)ccc1O (centres undefined) | > 53.6 | 77 | > 100 | > 54.5 | > 100 | > 74.7 | 90.6 | > 62.8 | > 71.7 | > 100 | 23.8 | > 100 |  |  |  |  |  |  |
| Cc1ccc(C)n2c1nc1ccccc12 | > 100 | > 100 | > 100 |  | > 100 | > 100 |  | > 100 | > 100 | > 100 | > 100 |  | > 100 |  |  |  |  |  |
| CCOC(=O)c1c(NC(=S)Nc2ccc(Cl)cc2)sc2c1CCN(C)C2 | > 100 |  | > 100 |  | > 100 | > 100 |  | > 100 | > 100 | > 100 | > 100 | > 100 |  |  |  |  |  |  |
| COc1ccccc1C(O)[C@@H]1C[C@@H]2[C@H]3CC[C@@](C)([C@@H]2O1)C3(C)C (some centres undefined) | 44.1 | 41.8 | 31.2 | 35.8 |  | 36.3 | 38.5 | 42 | 31.3 | 38.9 | 58 | 34.3 | 34.4 |  |  |  |  |  |
| CCOC(=O)NC(Nc1ccc(F)cc1)(C(=O)OCC)C(F)(F)F (centres undefined) | > 23.9 | > 100 | > 100 | > 100 | > 100 | > 100 | > 100 | > 100 | > 100 | > 100 | > 100 |  | > 100 |  |  |  |  |  |
| Fc1ccc2c3c([nH]c2c1)CCN(Cc1ccccc1)C3 | > 100 | 26 | 42.5 | 33.5 | 39.5 | 33.1 |  | 71 |  | 39.6 | 49.2 |  | 34.3 |  |  |  |  |  |
| CC(=O)O[C@H]1C(=O)[C@@]2(C)[C@H]([C@H](OC(=O)c3ccccc3)[C@]3(O)C[C@H](OC(=O)[C@H](O)[C@@H](NC(=O)c4ccco4)c4ccccc4)C(C)=C1C3(C)C)[C@]1(OC(C)=O)CO[C@@H]1C[C@@H]2O | 0.0073 |  | > 12.5 | > 12.5 |  | > 12.5 | > 12.5 | > 7.75 | 0.00548 | > 12.5 | > 12.5 |  |  |  |  |  |  |  |
| C/C(=N\NC(=O)c1ccccc1O)c1cccc(/C(C)=N/NC(=O)c2ccccc2O)n1.O=S(=O)([O-])[O-].[Fe+2] | 5.74 | > 100 | > 100 |  | > 100 | > 100 | > 100 |  | > 100 | > 100 | > 100 | > 100 |  | 1.42 | 47.7 | > 100 | > 100 | > 100 |
